Experimental data: the supplement of paper PMC12463676, “Small-molecule dissolution of stress granules by redox modulation benefits ALS models” (Nature Chemical Biology, 2025)

Tests used:
[1] = compound: NC(=O)CCCCC1CCSS1 [lipoamide]; assay: thermal stability z-score vs DMSO; higher = more thermally stabilized by treatment; settings: HeLa, lipoamide concentration 100 µM
Protocol: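 Cellular thermal proteome profiling in HeLa cells. Cells were treated with 100 µM lipoamide for 1 h, with or without 1 mM arsenate for a further 1 h, then heated to ten temperatures (37-66.3 °C), and soluble protein was quantified by TMT mass spectrometry relative to 0.1% DMSO controls. The thermal stability score (sum of log2 fold changes minus the abundance score) was transformed to a z-score; mean of n = 3 experiments.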

[2] = compound: O=[As]([O-])(O)O.[K+] [potassium arsenate]; assay: as above; settings: HeLa; arsenate concentration 1 mM
Protocol: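 Cellular thermal proteome profiling in HeLa cells treated with 1 mM arsenate for 1 h (DMSO pretreatment), heated to ten temperatures (37-66.3 °C). Soluble protein was quantified by TMT mass spectrometry relative to DMSO controls; the thermal stability score was transformed to a z-score; mean of n = 3 experiments.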

[3] = arsenate co-treatment: 1 mM arsenate 1 h
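Further: each temperature applied for 3 min, abundance score taken as mean log2 fold change at the two lowest temperatures, z-score obtained by mean subtraction and division by SD.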

Chain of UniProt Q96H55 (Q96H55 whole entry): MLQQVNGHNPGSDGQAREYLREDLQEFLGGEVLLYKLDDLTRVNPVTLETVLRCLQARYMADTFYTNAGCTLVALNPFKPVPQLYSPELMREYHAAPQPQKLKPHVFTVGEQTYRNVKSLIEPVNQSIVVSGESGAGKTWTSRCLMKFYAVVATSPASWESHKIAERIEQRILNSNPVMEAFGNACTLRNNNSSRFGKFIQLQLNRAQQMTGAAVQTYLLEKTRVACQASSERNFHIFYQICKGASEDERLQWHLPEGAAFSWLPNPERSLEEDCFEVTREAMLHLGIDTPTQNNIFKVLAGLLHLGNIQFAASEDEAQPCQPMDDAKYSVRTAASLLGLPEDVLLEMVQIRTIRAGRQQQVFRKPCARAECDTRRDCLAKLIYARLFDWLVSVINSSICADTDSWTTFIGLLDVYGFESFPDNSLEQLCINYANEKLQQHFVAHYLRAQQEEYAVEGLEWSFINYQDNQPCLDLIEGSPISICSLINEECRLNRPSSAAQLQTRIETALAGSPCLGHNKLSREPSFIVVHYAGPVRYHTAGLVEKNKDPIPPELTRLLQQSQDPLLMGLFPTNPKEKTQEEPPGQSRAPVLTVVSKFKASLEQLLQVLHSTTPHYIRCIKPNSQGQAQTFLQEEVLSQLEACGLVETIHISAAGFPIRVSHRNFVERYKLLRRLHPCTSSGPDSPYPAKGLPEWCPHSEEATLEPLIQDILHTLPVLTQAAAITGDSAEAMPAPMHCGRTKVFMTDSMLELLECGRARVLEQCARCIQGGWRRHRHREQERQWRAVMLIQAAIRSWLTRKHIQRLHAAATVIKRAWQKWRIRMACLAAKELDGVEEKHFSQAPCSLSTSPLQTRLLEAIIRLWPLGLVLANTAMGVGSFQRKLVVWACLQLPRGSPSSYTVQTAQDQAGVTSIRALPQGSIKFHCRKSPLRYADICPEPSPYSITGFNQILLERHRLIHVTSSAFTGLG
Chain of UniProt Q86VN1 (Q86VN1 whole entry): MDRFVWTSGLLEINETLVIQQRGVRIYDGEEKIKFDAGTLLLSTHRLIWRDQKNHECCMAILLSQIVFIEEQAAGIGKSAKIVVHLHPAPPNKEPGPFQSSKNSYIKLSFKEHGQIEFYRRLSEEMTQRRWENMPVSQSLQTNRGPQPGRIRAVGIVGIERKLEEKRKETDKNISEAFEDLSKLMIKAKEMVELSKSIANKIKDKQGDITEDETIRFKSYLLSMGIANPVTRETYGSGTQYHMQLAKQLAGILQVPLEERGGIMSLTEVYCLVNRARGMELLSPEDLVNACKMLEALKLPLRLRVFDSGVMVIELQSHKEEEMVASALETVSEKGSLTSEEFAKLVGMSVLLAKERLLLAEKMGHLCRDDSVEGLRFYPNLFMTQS
Chain of UniProt P50238 (P50238 whole entry): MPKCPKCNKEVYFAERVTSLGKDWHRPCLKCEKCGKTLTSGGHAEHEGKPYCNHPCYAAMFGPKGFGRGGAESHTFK
Chain of UniProt Q9NS91 (Q9NS91 whole entry): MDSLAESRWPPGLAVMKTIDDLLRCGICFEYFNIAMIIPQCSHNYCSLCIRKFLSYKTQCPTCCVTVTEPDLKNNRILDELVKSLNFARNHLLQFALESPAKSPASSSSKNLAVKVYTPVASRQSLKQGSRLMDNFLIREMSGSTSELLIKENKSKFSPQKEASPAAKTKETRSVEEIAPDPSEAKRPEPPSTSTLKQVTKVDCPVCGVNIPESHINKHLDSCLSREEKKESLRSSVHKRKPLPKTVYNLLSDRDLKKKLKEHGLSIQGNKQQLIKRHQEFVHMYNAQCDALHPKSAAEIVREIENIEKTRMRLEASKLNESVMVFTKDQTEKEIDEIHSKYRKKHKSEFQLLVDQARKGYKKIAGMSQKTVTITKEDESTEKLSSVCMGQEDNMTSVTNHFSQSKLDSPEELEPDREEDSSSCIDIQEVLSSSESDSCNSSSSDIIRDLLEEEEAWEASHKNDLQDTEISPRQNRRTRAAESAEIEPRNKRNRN
Chain of UniProt Q6UX07 (Q6UX07 whole entry): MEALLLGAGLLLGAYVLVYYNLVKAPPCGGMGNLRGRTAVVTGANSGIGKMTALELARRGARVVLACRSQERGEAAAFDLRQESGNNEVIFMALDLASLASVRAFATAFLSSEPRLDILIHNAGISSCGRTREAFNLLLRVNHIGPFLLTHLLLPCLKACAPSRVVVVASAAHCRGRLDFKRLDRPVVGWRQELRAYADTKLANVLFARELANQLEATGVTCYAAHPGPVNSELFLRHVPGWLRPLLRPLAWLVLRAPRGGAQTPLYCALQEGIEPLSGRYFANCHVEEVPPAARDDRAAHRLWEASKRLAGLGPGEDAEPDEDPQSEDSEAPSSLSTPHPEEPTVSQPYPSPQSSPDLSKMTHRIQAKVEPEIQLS
Chain of UniProt Q9NPE3 (Q9NPE3 whole entry): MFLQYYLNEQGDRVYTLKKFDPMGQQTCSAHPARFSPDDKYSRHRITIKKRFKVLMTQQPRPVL
Chain of UniProt Q9Y6C9 (Q9Y6C9 whole entry): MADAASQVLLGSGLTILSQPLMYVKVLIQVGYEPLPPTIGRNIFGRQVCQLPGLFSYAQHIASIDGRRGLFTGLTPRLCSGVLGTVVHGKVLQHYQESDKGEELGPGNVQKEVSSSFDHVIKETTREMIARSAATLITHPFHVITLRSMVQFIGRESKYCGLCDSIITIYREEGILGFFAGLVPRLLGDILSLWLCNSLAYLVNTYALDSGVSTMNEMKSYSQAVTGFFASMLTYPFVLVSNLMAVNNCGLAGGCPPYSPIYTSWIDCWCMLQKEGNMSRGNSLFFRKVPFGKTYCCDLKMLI
Chain of UniProt Q643R3 (Q643R3 whole entry): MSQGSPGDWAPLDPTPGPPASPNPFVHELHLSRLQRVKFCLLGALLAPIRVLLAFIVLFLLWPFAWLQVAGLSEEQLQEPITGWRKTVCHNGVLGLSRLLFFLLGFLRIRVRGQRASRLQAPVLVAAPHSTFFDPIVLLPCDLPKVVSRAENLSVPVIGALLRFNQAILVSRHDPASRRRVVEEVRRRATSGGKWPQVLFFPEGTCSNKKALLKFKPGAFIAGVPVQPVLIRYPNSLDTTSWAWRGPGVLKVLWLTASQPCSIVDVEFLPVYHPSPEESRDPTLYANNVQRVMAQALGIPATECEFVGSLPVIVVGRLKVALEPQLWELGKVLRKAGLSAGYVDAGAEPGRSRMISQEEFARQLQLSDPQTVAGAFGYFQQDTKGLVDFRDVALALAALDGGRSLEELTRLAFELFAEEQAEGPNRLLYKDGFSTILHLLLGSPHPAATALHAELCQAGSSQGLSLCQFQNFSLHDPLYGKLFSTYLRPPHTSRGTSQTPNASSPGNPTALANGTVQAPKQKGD
Chain of UniProt Q9NPD3 (Q9NPD3 whole entry): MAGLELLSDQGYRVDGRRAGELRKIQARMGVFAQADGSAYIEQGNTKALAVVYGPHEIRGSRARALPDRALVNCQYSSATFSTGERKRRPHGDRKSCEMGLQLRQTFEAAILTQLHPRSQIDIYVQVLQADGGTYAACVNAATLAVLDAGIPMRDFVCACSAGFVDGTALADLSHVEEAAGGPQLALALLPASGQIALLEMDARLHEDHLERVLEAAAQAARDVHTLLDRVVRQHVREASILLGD
Chain of UniProt Q9GZU8 (Q9GZU8 whole entry): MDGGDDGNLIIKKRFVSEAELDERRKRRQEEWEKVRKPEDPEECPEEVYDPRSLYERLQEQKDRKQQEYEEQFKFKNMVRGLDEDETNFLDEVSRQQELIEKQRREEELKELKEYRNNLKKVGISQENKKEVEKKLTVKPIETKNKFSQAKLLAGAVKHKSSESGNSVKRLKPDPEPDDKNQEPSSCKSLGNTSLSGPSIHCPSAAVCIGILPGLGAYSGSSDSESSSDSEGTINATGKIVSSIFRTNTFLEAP
Chain of UniProt Q9Y4E8 (Q9Y4E8 whole entry): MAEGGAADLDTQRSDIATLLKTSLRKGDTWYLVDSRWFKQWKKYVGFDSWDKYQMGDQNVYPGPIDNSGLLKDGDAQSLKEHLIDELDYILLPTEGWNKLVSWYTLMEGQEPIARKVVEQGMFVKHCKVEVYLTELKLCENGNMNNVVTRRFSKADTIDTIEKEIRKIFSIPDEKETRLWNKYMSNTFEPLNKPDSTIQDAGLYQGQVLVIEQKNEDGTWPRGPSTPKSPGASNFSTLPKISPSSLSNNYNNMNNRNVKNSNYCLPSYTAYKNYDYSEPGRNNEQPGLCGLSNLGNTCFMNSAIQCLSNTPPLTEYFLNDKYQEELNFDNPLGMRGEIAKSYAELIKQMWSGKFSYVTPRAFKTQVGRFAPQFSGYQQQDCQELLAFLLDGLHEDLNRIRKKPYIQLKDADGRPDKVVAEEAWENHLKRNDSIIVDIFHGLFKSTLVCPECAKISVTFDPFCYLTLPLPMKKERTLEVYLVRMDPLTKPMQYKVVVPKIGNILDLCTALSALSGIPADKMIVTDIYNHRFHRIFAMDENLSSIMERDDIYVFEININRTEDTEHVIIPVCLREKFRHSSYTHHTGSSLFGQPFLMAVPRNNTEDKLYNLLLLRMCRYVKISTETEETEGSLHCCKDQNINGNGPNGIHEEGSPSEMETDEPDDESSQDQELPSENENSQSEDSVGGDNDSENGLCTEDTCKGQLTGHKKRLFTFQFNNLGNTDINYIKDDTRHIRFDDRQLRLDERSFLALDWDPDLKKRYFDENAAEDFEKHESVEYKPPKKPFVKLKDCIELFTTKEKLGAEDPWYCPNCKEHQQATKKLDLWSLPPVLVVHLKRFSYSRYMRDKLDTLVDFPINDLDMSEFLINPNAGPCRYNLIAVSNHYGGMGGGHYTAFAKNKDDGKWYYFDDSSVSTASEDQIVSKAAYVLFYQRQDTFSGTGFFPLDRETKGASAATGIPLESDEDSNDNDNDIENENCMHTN
Chain of UniProt O00488 (O00488 whole entry): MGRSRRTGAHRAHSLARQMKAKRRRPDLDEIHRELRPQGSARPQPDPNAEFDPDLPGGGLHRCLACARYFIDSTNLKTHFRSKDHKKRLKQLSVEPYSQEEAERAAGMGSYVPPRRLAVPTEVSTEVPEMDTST

| Target | thermal stability z-score [1, 3] | thermal stability z-score ([1]; arsenate co-treatment: none) | thermal stability z-score [2] |
| --- | --- | --- | --- |
| LPCAT4 (UniProt Q643R3) | -0.953 | 0.367 | 0.519 |
| PPM1H (UniProt Q9ULR3) | -1.19 | 0.00662 | -1.01 |
| EHD2 (UniProt Q9NZN4) | -0.612 | -0.489 | -0.781 |
| CIZ1 (UniProt Q9ULV3) | 0.0439 | -0.505 | -0.0848 |
| ACBD6 (UniProt Q9BR61) | -1.02 | -0.756 | -0.675 |
| ZNF593 (UniProt O00488) | 4.3 | 2.19 | -6.67 |
| DDOST (UniProt P39656) | -3.14 | -2.49 | 0.00935 |
| MYH10 (UniProt P35580) | 0.273 | 0.19 | 0.375 |
| HIST1H4A (UniProt P62805) | 0.954 | 0.814 | 2.61 |
| NSUN2 (UniProt Q08J23) | -1.4 | -0.353 | -0.192 |
| CRIP1 (UniProt P50238) | 1.49 | 1.68 | 1.18 |
| STX2 (UniProt P32856) | 0.221 | -0.18 | -0.135 |
| NRAS (UniProt P01111) | 0.00516 | -0.21 | -0.271 |
| USP15 (UniProt Q9Y4E8) | 0.00184 | -0.0791 | 0.014 |
| DHRS1 (UniProt Q96LJ7) | -0.121 | 0.743 | 0.812 |
| RIN1 (UniProt Q13671) | -0.105 | -0.041 | 0.0874 |
| VPS36 (UniProt Q86VN1) | -0.308 | -0.0675 | 0.0802 |
| NOP10 (UniProt Q9NPE3) | 0.405 | -0.0767 | 0.522 |
| MYO19 (UniProt Q96H55) | 0.0427 | 0.347 | -0.139 |
| DDX6 (UniProt P26196) | 0.414 | 0.53 | 1.01 |
| RPS3 (UniProt P23396) | 0.354 | 0.207 | -0.627 |
| CHPF (UniProt Q8IZ52) | -1.5 | -0.387 | -0.257 |
| FAM192A (UniProt Q9GZU8) | -0.00729 | 0.455 | -0.58 |
| PSMC1 (UniProt P62191) | -0.269 | -0.208 | -0.724 |
| MGST3 (UniProt O14880) | 0.65 | 0.431 | 2.22 |
| DHRS13 (UniProt Q6UX07) | 0.049 | 0.274 | 0.0183 |
| MOCOS (UniProt Q96EN8) | 0.344 | 0.221 | -0.535 |
| SMPD2 (UniProt O60906) | -0.297 | -0.186 | -0.382 |

| Target | thermal stability z-score [1, 3] | thermal stability z-score ([1]; arsenate co-treatment: none) | thermal stability z-score [2] |
| --- | --- | --- | --- |
| NOP9 (UniProt Q86U38) | 0.182 | 0.121 | -0.372 |
| PDK1 (UniProt Q15118) | 0.35 | -0.0874 | 0.836 |
| CBX5 (UniProt P45973) | -0.00136 | 0.383 | -0.0201 |
| EIF3D (UniProt O15371) | -0.0633 | 0.0556 | -0.0622 |
| MCCC1 (UniProt Q96RQ3) | -0.187 | -0.191 | -0.585 |
| GBF1 (UniProt Q92538) | -0.598 | -0.0839 | 0.452 |
| GMPS (UniProt P49915) | -0.853 | -0.447 | -0.42 |
| MFN2 (UniProt O95140) | -0.0814 | -0.338 | 0.252 |
| EXOSC4 (UniProt Q9NPD3) | 0.821 | -0.104 | -0.872 |
| PDE1A (UniProt P54750) | 0.864 | 1.23 | 1.05 |
| GGH (UniProt Q92820) | 0.661 | 0.64 | 0.317 |
| TMED9 (UniProt Q9BVK6) | -1.24 | -1.5 | 0.151 |
| PSME3 (UniProt P61289) | 0.957 | 0.849 | 0.504 |
| TJP1 (UniProt Q07157) | 0.078 | -0.0866 | 0.371 |
| MATK (UniProt P42679) | -0.101 | -0.0941 | -0.0451 |
| TANC1 (UniProt Q9C0D5) | 0.142 | 1.34 | 1.14 |
| KPNA4 (UniProt O00629) | 0.791 | 0.48 | 0.399 |
| DDX39B (UniProt Q13838) | 0.451 | 0.103 | 0.941 |
| MTCH2 (UniProt Q9Y6C9) | -0.0451 | 0.12 | 0.688 |
| NRBP1 (UniProt Q9UHY1) | -0.349 | -0.151 | 0.23 |
| SIRT5 (UniProt Q9NXA8) | -0.814 | -1.26 | -1.02 |
| RAD18 (UniProt Q9NS91) | -0.082 | -0.0293 | -0.0799 |
| TNFAIP1 (UniProt Q13829) | -0.526 | -0.699 | -0.727 |
| MKL2 (UniProt Q9ULH7) | -0.208 | -0.342 | 0.418 |
| LUC7L (UniProt Q9NQ29) | -0.243 | -0.433 | -1.2 |
| MON1B (UniProt Q7L1V2) | 0.955 | 0.582 | 0.685 |
| ZC3H8 (UniProt Q8N5P1) | -0.0194 | -0.277 | -0.576 |
